The test system of one data set is mice. Conditions: mouse, in vivo, 30 mg/kg.
Data set [1] relates to thrombocyte aggregation in platelet-rich plasma. Nature of the data set: Antithrombotic effect: collagen-induced thrombocyte aggregation in platelet-rich plasma (Born and Cross). Conditions: human platelet-rich plasma, 10 minutes preincubation at 37° C., read-out: Inhibition of platelet aggregation EC50. It is filed as cell-based. In short, it runs like this:
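Human platelet-rich plasma (citrated 1:10, 3.14%) incubated with compound 10 min at 37 °C, then aggregation triggered by minimal collagen giving irreversible response. Optical density change tracked photometrically (Born and Cross); EC50 determined graphically as 50% inhibition of optical density change.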

In the next data set the test system is Human Thrombocytes. Nature of the data set: Fibrinogen Binding to Human Thrombocytes (I125-fibrinogen, gel-filtered platelets). Conditions: inhibition of I125-fibrinogen binding to gel-filtered human platelets, ADP, 20 minutes, ambient temperature; read-out: Fibrinogen Binding test IC50. The procedure, abridged: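 Gel-filtered human platelets (from citrated PRP, pH 7.4 Tris/citrate/glucose buffer) incubated 20 min at ambient temperature with test compound, CaCl2, ADP and I125-fibrinogen; non-specific binding with 3 mg/ml cold fibrinogen. Platelets spun through silicone oil, bound fibrinogen gamma-counted; IC50 from a concentration series.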

Data set [2] concerns collagen-induced thrombocyte aggregation. Nature of the data set: Collagen-induced thrombocyte aggregation ex vivo after oral administration. It is filed as in vivo. Conditions: Rhesus monkeys, 1 mg/kg.

Counter-ions that a name gives are not always drawn. Bounds are passed on as bounds.

By EC50 is commonly meant the concentration needed to bring the measured effect to its halfway point. A word on the IC50: it is the point on the concentration scale where inhibition reaches its midpoint. As to `Cc1nn(-c2ccc(C(=N)N)cc2)c(=O)n1-c1ccc(CCC(=O)O)cc1` [1(139), 2-(4-amidino-phenyl)-4-[4-(2-carboxy-ethyl)-phenyl]-5-methyl-4H-1,2,4-triazol-3-one], the sedation result in the data set on mice is reported as “one animal was sedated”. For the same molecule, in data set [1], the EC50 was found to be 30 nM. Moreover, the half-inhibitory concentration (IC50) in the data set with Human Thrombocytes was 6.8 nM.
Consider `COC(=O)NC(=N)c1ccc(-n2nc(C)n(-c3ccc(CCC(=O)OCC(C)C)cc3)c2=O)cc1` [Example 5(18), 4-[4-(2-isobutyloxycarbonyl-ethyl)-phenyl]-2-(4-methoxycarbonylamidino-phenyl)-5-methyl-4H-1,2,4-triazol-3-one], for which the “duration of inhibition of collagen-induced thrombocyte aggregation ex vivo” value in data set [2] is reported as “up to 8 hours”. In addition, in data set [1], the EC50 turned out to be 8060 nM. The IC50 in the data set with Human Thrombocytes was > 10000 nM.
With `N=C(N)c1ccc(N2CCN(c3ccc(CCC(=O)O)cc3)S2(=O)=O)cc1` [1(66), 2-(4-amidino-phenyl)-5-[4-(2-carboxy-ethyl)-phenyl]-3,4-dihydro-2H,5H-1,2,5-thiadiazole-1,1-dioxide], in the data set with mice, the sedation entry is “one animal was sedated”. In addition, the half-maximal effective concentration (EC50) in data set [1] amounted to 50 nM. Moreover, the concentration for half-maximal inhibition (IC50) in the data set on Human Thrombocytes was found to be 9.1 nM.
Turning to `Cc1cn(-c2ccc(C(=N)N)cc2)c(=O)n1-c1ccc(CCC(=O)O)cc1` [Example 1(138), 1-(4-amidino-phenyl)-3-[4-(2-carboxy-ethyl)-phenyl]-4-methyl-3H-imidazol-2-one], the “death of animals after intravenous administration” value in the data set on mice (iv) is given as “did not lead to the death of any of the three animals tested”. In addition, the EC50 in data set [1] was determined as 40 nM. Further, the half-maximal inhibitory concentration (IC50) with Human Thrombocytes stood at 21 nM.
Regarding `CN1C(=O)N(CCC(=O)O)CC1c1ccc(-c2ccc(C(=N)N)cc2)cc1` (centres unmarked) [4(14), 4-(4'-amidino-4-biphenylyl)-1-(2-carboxy-ethyl)-3-methyl-imidazolidin-2-one hydrochloride], in data set [1], the EC50 is 200 nM. Also, in the data set with Human Thrombocytes, the half-maximal inhibitory concentration (IC50) came to 41 nM.
Regarding `COC(=O)CCN1CCN(c2ccc(-c3ccc(C(=N)N)cc3)nn2)C1=O` [2(27), 1-[6-(4-amidino-phenyl)-3-pyridazinyl]-3-(2-methoxycarbonyl-ethyl)-imidazolidin-2-one hydrochloride], the EC50 in data set [1] was 490 nM. In addition, the IC50 with Human Thrombocytes stood at 2500 nM.
Regarding `COC(=O)CCc1ccc(N2CCN(c3ccc(CN)cc3)C2=O)cc1` [8(2), 1-(4-aminomethyl-phenyl)-3-[4-(2-methoxycarbonyl-ethyl)-phenyl]-imidazolidin-2-one hydrochloride], in data set [1], the EC50 was 370 nM. In addition, in the data set on Human Thrombocytes, the IC50 came to 450 nM.
`COC(=O)CCc1ccc(N2C(=O)CN(c3ccc(C(=N)N)cc3)C2=O)cc1` [2(53), 1-(4-amidino-phenyl)-3-[4-(2-methoxycarbonyl-ethyl)-phenyl]-imidazolidin-2,4-dione hydrochloride]: the EC50 in data set [1] amounted to 200 nM. The half-maximal inhibitory concentration (IC50) in the data set with Human Thrombocytes amounted to 4500 nM.
The corresponding values for `N=C(N)c1ccc(-c2ccc(N3CC(=O)N(CCC(=O)O)C3=O)cc2)cc1` [1(2), 1-(4'-amidino-4-biphenylyl)-3-(2-carboxy-ethyl)-imidazolidin-2,4-dione] are 320 nM and 96 nM.
The corresponding values for `N=C(N)c1ccc(-n2ccn(-c3ccc(CC(C(=O)O)N(Cc4ccccc4)Cc4ccccc4)cc3)c2=O)cc1` (centres unmarked) [1(150), 1-(4-amidino-phenyl)-3-[4-(2-carboxy-2-dibenzylamino-ethyl)-phenyl]-3H-imidazol-2-one] are 9900 nM and 370 nM.
With `COC(=O)CCc1ccc(-n2cc(-c3ccc(C(=N)N)cc3)n(C)c2=O)cc1` [2(81), 4-(4-amidino-phenyl)-1-[4-(2-methoxycarbonyl-ethyl)-phenyl]-3-methyl-3H-imidazol-2-one hydrochloride], in data set [1], the EC50 is 1500 nM. For the same molecule, in the data set on Human Thrombocytes, the IC50 amounted to 19000 nM.
The corresponding values for `CCOC(=O)CCn1ccn(-c2ccc(-c3ccc(C(=N)N)cc3)cc2)c1=O` [2(3), 1-(4'-amidino-4-biphenylyl)-3-(2-ethoxycarbonyl-ethyl)-3H-imidazol-2-one h ydrochloride] are 3100 nM and 18000 nM.
The corresponding values for `COC(=O)C(Cc1ccc(-n2ccn(-c3ccc(C(=N)N)cc3)c2=O)cc1)N(Cc1ccccc1)Cc1ccccc1` (centres unmarked) [2(127), 1-(4-amidino-phenyl)-3-[4-(2-dibenzylamino-2-methoxycarbonyl-ethyl)-phenyl]-3H-imidazol-2-one hydrochloride] are 18000 nM and 5600 nM.
The corresponding values for `CC(=O)N(CCN1CCN(c2ccc(C(=N)N)cc2)C1=O)CC(=O)O` [Example 30, 1-[2-(N-Acetyl-N-carboxymethyl-amino)-ethyl]-3-(4-amidino-phenyl)-imidazolidin-2-one] are 8300 nM and 4400 nM.

The values above are taken from patent publication US5276049A, “Cyclic urea derivatives, pharmaceutical compositions containing these compounds and methods of using the same” (Dr. Karl Thomae GmbH, priority 1991, dated 1994).
